For 5 molecules, IC50 results are on record in BindingDB's records for doi:10.1016/j.bmcl.2008.11.037 (Wyeth Research, 2009).

This experiment concerns the target Insulin-like growth factor 1 receptor (Homo sapiens, UniProt P08069). Kind of experiment: In Vitro Kinase Inhibition Assay. The method, then: Assays were performed in microtiter plates in reaction buffer containing biotinylated substrate, ATP, and purified kinase in the presence of test compounds. After incubation, product was detected using a homogeneous time-resolved fluorescence quenching assay (LANCE).

Chain of Insulin-like growth factor 1 receptor (P08069 31-736 limits assumed): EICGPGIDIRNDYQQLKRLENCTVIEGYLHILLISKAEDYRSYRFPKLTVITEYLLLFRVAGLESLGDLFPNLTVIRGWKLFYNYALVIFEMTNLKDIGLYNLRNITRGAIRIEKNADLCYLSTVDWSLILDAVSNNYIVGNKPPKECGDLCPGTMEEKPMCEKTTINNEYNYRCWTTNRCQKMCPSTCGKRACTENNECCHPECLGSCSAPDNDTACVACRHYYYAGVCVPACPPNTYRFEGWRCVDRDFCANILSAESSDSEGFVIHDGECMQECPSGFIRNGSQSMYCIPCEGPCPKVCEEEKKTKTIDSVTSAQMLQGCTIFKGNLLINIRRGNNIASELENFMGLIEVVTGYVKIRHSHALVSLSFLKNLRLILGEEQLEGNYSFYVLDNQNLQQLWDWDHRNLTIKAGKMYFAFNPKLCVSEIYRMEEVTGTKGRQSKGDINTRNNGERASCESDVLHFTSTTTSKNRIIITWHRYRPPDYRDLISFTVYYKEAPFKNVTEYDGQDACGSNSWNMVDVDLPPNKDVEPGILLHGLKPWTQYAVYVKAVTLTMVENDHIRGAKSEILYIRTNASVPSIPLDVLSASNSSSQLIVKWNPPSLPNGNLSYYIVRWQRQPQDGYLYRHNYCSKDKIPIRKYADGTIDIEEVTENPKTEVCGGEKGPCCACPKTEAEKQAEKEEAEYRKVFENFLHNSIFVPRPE
Chain of Insulin-like growth factor 1 receptor (P08069 741-1367 limits assumed): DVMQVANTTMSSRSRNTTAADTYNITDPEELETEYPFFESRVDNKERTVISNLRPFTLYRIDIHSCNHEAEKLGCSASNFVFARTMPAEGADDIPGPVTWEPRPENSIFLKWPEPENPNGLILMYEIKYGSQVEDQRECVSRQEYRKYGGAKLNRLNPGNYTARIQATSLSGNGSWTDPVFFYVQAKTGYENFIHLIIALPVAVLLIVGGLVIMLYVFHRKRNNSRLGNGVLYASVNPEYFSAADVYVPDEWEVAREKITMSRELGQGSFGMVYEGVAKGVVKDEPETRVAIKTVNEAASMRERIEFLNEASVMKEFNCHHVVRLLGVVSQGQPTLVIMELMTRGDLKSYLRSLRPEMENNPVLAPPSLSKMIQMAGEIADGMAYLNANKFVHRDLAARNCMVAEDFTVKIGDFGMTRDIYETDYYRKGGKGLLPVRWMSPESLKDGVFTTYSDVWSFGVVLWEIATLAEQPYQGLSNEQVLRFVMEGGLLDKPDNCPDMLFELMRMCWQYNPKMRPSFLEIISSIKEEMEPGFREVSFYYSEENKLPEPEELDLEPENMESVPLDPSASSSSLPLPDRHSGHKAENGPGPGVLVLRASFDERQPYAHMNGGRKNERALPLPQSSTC

By IC50 is commonly meant the concentration that inhibits the measured activity by half. Low values mean greater potency in that assay, high ones weaker potency in that assay. Regarding `COc1cc2c(Nc3ccc(Sc4ncc(C)n4C)c(Cl)c3)c(C#N)cnc2cc1NCCCN(C)C` [4-({3-chloro-4-[(1,5-dimethyl-1H-imidazol-2-yl)sulfanyl]phenyl}amino)-7-{[3-(dimethylamino)propyl]amino}-6-methoxyquinoline-3-carbonitrile], it took 291 nM to reach half-maximal inhibition (pH 7.5, 22 °C) (IC50).
On the same count and under the same terms, with `CCn1c(Sc2ccc(Nc3c(C#N)cnc4cc(NCCCN5CCOCC5)c(OC)cc34)cc2Cl)nc(C)c1C` [4-({3-chloro-4-[(1-ethyl-4,5-dimethyl-1H-imidazol-2-yl)sulfanyl]phenyl}amino)-6-methoxy-7-{[3-(morpholin-4-yl)propyl]amino}quinoline-3-carbonitrile] the figure was 20 nM.
As to `COc1cc2c(Nc3ccc(Sc4ccccc4)cc3)c(C#N)cnc2cc1OCCCN1CCOCC1` [6-methoxy-7-[3-(morpholin-4-yl)propoxy]-4-{[4-(phenylsulfanyl)phenyl]amino}quinoline-3-carbonitrile], the IC50 amounted to 1090 nM.
Molecule `CCOC(=O)C1CCN(CCCOc2cc3ncc(C#N)c(Nc4ccc(Sc5nc(C)c(C)n5CC)c(Cl)c4)c3cc2OC)CC1` [ethyl 1-(3-{[4-({3-chloro-4-[(1-ethyl-4,5-dimethyl-1H-imidazol-2-yl)sulfanyl]phenyl}amino)-3-cyano-6-methoxyquinolin-7-yl]oxy}propyl)piperidine-4-carboxylate] displayed an IC50 (pH 7.5, 22 °C) of 135 nM.
In turn, `CCn1c(Sc2ccc(Nc3c(C#N)cnc4cc(OCCCN5CCN(CCOC(N)=O)CC5)c(OC)cc34)cc2Cl)nc(C)c1C` [{2-[4-(3-{[4-({3-chloro-4-[(1-ethyl-4,5-dimethyl-1H-imidazol-2-yl)sulfanyl]phenyl}amino)-3-cyano-6-methoxyquinolin-7-yl]oxy}propyl)piperazin-1-yl]ethyl} carbamate] came in with a 50% inhibitory concentration (IC50) of 17 nM.
